From publication PMC6240685, “Strong Inhibitory Effect, Low Cytotoxicity and High Plasma Stability of Steroidal Inhibitors of N-Methyl-D-Aspartate Receptors With C-3 Amide Structural Motif” (Frontiers in Pharmacology, 2018)
Counter-ions that a name gives are not always drawn. Like-named read-outs stand apart in the source and are kept apart here.

What was measured:
[1] = target: T1, GluN1/GluN2B receptors (Rattus norvegicus, UniProt P35439+Q00960); assay: Patch-clamp inhibition of glutamate responses of GluN1/GluN2B receptors in transfected HEK293 cells; type: cell-based
T1 construct: expressed in transfected cells; host or cells: HEK293

[2] = tested on: HepG2 cells; assay: Mitotoxicity, XTT viability in glucose vs galactose medium; conditions: for IC50: Homo sapiens, HepG2, 24 h
Procedure: (§1) (A) Hepatotoxicity provoked by compound 4 was assessed after 72 h incubation of HepG2 cells in low glucose medium (5 mM) in the presence of compound 4 (0.25–100 μM). (B) Mitochondrial toxicity was determined after 24 h incubation of HepG2 cells in either high glucose medium (25 mM) or galactose medium (10 mM) in the presence of compound 4 (2.5–150 μM). Cell viabilities were recorded in triplicates in three independent experiments and expressed as percentage of vehicle control ± SD and IC50 values were determined by GraphPad Prism software using following equation: Y = Bottom + (Top–Bottom)/(1 + 10ˆ((LogIC50-X)^∗HillSlope)), where IC50 is the concentration of compound 4 that inhibits cell viability half way between Bottom and Top plateaus, X is compound 4 concentration and HillSlope describes the steepness of the family of curves. […] (C) Concentration-dependent effect on ROS level. HepG2 cells were treated with compound 4 (0.25–100 μM) for 72 h, and then the intracellular level of total ROS in relative fluorescence units (RFU) was detected. The data are presented as the mean ± SD for at least three independent experiments and each experiment was carried out in triplicate. Final concentration of DMSO in samples was 1%. […] Single asterisks (^∗) indicate a significant difference (P < 0.05) compared to 1% DMSO control (one-way ANOVA with Dunnett’s post-test).
(§2) HepG2 cells (ATCC®, United Kingdom) were grown in complete Minimal Essential Medium (EMEM) (5.5 mM glucose) medium, supplemented with 10% (v/v) fetal calf serum, 200 μg/mL of streptomycin, 200 U/mL of penicillin G and 4 mM glutamine. They were cultured under a humidified atmosphere containing 5% CO2 at 37°C.
(§3) The cytotoxicity of the tested compounds was assessed with use of XTT cell proliferation kit II (Roche Diagnostics GmbH, Mannheim, Germany) according to the manufacturer’s instructions. Briefly HepG2 cells were seeded in a 96-well plate at a density of 22,000 cells per well. After 24 h, the tested neurosteroids in a concentration range from 0.5 to 200 μM were added to the culture media and incubated for 72 h before the XTT dye was added. Mitochondrial toxicity was assessed in HepG2 cells using glucose and galactose conditioned media and XTT assay as a read out for cell viability. In brief, cells were seeded onto 96 well, clear bottom tissue culture plates at a density of 22,000 cells/well and left overnight to attach. Six hours prior to the neurosteroids treatment the media was replaced with 100 μL DMEM media containing either glucose (25 mM glucose; 1 mM pyruvate; 2 mM glutamine, 10% FBS) or galactose (10 mM galactose, 1 mM pyruvate, 6 mM glutamine, 10% FBS). After that, the tested neurosteroids in a concentration range from 0.5 to 200 μM were added in the fresh appropriate assay medium (glucose or galactose) and incubated for 24 h before the XTT dye was added. The XTT absorbance was recorded at 495 nm after 1 h incubation with the dye. Compounds were dissolved in DMSO to produce the stock solutions at the concentration of 10 mM, with exception of PAG, 1, 6 (5 mM), and 11 (2.5 mM). Results were expressed as percentages of change in viability compared to appropriate DMSO control. IC50 values were determined by GraphPad Prism version 5.00 for Windows (GraphPad Software, La Jolla, CA, United States). All experiments were done in triplicates in three independent experiments to check the reproducibility.

[3] = tested on: HepG2 cells; assay: Hepatotoxicity, XTT viability after 72 h; type: cell-based; conditions: Homo sapiens, read-out: Hepatotoxicity IC50, 5.5 mM glucose
Procedure: Then, the cell viability (XTT assay) and reactive oxygen species (ROS) induction were evaluated.
as §1, §2, §3

[4] = tested on: HepG2 cells; assay: ROS induction (CM-H2DCFDA); type: cell-based
Procedure: as §1
The effect of neurosteroids on oxidative stress was determined using general oxidative stress indicator CM-H2DCFDA (Thermo Fisher Scientific, Waltham, MA, United States) according to the manufacturer’s instructions. Briefly HepG2 cells were seeded in a 96-well plate at a density of 13,500 cells per well. After 24 h, the tested neurosteroids were added to the culture media and incubated for 72 h. Subsequently, cells were washed with HBSS, treated with 100 μL of 1 μM CM-H2DCF-DA solution in HBSS and incubated for 1 h in the dark at 37°C. Finally, cells were washed three times with HBSS and the fluorescence was measured using 495 excitation and 527 emission in fluorescence microplate reader (Cytation 3, Winooski, VT, United States). IC50 index values were determined by GraphPad Prism version 5.00 for Windows (GraphPad Software, La Jolla, CA, United States).

[5] = Plasma stability, rat plasma; type: in vitro ADME; conditions: rat, plasma
[6] = Plasma stability, human plasma; type: in vitro ADME; conditions: human, plasma
Procedure: Then, 37.8 μL of stock solution was added to 1400 μL of human plasma, maintained at 37°C. Aliquots (50 μL) withdrawn at 0, 1, 4, 8, and 24 h were analyzed by HPLC. […] The supernatant was transferred to an autosampler vial and 1 μL was injected onto LC-MS system. The samples were analyzed with an Agilent 1260 HPLC (Agilent Technologies) coupled to ESI-TOF Agilent 6530 (Agilent Technologies) with Agilent Jet Stream Technology. Samples were separated on a Waters ACQUITY UPLC CSH Phenyl-Hexyl (100 × 2.1, 130 Å, 1.7 μm) at a flow rate 0.3 ml/min. […] The mass spectrometry instrument was operated in a negative ion mode with a voltage of +3.00 kV applied to the capillary. The temperature, the flow rate of the nitrogen drying gas, the pressure of the nitrogen nebulizing gas, and the flow rate of the sheath gas were set at 325°C, 10 l/min, 40 psi, 390°C, and 11 l/min, respectively. Results are represented as a percentage of a compound remaining in spiked human plasma.

[7] = target: T1, GluN1/GluN2B receptors; design: method as in Petrovic et al., 2005; conditions: ref Petrovic et al., 2005; cited from earlier work
[8] = target: T2, GluN1/GluN2A receptors (Rattus norvegicus, UniProt P35439+Q00959); design: method as in Petrovic et al., 2005; conditions: ref Petrovic et al., 2005; cited from earlier work
T2 construct: expressed in transfected cells; host or cells: HEK293

[9] = target: T3, GluN1/GluN2C receptors (Rattus norvegicus, UniProt P35439+Q00961); design: method as in Petrovic et al., 2005; conditions: ref Petrovic et al., 2005; cited from earlier work
T3 construct: expressed in transfected cells; host or cells: HEK293

[10] = target: T4, GluN1/GluN2D receptors (Rattus norvegicus, UniProt P35439+Q62645); design: method as in Petrovic et al., 2005; conditions: ref Petrovic et al., 2005; cited from earlier work
T4 construct: expressed in transfected cells; host or cells: HEK293

[11] = as repeated in Table 2, read-out: IC50
[12] = current responses to glutamate, HEK293, IC50 from single steroid dose, Hill coefficient fixed at 1.2, read-out: IC50 ± SD
[13] = read-out: Mitotoxicity IC50, 10 mM galactose
[14] = read-out: Mitotoxicity IC50, 25 mM glucose
[15] = Homo sapiens, HepG2, 72 h; read-out: ROS induction EC50

T1 sequence (Q00960 27-1482, other chains not shown): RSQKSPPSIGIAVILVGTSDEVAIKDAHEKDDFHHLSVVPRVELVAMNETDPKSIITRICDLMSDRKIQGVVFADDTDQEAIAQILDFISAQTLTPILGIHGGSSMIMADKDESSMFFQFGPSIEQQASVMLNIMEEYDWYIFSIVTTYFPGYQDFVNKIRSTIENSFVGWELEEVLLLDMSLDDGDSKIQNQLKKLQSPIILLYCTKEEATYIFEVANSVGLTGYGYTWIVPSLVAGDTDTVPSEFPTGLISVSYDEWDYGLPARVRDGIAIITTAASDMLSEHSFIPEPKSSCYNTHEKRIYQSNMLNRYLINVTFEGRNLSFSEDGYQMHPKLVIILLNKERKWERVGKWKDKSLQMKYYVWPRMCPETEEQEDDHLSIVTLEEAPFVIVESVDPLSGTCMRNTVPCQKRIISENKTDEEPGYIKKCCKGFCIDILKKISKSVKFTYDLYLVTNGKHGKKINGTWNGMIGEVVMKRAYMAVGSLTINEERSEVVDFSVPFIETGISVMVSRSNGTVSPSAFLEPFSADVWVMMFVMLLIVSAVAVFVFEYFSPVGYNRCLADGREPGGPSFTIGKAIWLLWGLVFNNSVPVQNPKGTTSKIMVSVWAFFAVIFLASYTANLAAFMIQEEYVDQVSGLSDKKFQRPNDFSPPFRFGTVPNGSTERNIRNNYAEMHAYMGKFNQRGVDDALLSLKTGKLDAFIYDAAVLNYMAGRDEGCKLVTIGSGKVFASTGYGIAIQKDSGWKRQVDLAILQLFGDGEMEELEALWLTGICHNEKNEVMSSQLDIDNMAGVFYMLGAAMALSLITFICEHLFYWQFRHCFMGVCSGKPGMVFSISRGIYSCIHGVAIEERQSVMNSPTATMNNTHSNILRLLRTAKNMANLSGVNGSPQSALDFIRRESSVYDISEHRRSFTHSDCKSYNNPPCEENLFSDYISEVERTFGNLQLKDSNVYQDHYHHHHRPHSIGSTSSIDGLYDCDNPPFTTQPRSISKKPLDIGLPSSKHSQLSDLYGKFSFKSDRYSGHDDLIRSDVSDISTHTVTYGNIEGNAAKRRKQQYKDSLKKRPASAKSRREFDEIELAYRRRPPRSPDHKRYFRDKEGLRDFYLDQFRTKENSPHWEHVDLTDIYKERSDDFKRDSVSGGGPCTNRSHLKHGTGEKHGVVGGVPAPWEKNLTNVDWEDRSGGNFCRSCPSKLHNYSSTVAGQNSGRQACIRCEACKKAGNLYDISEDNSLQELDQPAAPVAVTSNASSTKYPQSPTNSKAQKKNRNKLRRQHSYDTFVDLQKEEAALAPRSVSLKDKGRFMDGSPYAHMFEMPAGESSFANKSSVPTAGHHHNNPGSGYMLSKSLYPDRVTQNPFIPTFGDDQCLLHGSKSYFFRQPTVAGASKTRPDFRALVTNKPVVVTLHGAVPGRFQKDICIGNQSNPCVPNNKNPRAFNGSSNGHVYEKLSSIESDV
T4 sequence (Q62645 28-1323, other chains not shown): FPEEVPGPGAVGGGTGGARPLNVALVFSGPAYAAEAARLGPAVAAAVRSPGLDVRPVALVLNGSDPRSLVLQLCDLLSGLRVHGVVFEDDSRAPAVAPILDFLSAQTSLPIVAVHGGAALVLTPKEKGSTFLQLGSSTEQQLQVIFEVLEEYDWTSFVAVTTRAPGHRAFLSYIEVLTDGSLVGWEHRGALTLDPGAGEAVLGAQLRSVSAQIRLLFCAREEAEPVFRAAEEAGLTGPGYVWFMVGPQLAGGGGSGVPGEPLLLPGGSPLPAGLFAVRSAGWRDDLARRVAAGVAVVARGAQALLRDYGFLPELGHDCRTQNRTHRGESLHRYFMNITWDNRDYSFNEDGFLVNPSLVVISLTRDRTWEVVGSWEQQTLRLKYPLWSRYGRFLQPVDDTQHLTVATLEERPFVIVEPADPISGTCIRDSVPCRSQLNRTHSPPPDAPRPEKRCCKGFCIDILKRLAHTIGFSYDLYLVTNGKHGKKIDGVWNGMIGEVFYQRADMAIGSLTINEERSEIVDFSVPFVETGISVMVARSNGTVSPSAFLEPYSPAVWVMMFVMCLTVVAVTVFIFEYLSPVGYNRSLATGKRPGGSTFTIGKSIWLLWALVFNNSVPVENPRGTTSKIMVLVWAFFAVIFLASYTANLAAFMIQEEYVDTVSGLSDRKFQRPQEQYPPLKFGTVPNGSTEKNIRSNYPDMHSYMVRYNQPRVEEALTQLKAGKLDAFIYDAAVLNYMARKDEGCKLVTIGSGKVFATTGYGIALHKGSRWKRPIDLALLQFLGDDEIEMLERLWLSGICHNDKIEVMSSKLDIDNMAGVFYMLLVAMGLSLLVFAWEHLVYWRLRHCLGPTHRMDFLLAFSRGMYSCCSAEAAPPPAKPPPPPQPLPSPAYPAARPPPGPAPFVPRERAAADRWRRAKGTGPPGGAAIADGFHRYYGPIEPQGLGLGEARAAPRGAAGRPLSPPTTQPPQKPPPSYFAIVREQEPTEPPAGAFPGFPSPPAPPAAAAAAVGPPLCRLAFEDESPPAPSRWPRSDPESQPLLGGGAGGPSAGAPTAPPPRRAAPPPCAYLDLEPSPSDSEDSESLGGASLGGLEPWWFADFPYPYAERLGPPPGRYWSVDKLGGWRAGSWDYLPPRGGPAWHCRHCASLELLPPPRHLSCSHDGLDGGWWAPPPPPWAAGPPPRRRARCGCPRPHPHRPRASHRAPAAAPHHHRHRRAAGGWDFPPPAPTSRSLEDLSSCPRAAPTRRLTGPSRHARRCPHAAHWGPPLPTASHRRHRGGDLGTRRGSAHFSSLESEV
T3 sequence (Q00961 20-1237, other chains not shown): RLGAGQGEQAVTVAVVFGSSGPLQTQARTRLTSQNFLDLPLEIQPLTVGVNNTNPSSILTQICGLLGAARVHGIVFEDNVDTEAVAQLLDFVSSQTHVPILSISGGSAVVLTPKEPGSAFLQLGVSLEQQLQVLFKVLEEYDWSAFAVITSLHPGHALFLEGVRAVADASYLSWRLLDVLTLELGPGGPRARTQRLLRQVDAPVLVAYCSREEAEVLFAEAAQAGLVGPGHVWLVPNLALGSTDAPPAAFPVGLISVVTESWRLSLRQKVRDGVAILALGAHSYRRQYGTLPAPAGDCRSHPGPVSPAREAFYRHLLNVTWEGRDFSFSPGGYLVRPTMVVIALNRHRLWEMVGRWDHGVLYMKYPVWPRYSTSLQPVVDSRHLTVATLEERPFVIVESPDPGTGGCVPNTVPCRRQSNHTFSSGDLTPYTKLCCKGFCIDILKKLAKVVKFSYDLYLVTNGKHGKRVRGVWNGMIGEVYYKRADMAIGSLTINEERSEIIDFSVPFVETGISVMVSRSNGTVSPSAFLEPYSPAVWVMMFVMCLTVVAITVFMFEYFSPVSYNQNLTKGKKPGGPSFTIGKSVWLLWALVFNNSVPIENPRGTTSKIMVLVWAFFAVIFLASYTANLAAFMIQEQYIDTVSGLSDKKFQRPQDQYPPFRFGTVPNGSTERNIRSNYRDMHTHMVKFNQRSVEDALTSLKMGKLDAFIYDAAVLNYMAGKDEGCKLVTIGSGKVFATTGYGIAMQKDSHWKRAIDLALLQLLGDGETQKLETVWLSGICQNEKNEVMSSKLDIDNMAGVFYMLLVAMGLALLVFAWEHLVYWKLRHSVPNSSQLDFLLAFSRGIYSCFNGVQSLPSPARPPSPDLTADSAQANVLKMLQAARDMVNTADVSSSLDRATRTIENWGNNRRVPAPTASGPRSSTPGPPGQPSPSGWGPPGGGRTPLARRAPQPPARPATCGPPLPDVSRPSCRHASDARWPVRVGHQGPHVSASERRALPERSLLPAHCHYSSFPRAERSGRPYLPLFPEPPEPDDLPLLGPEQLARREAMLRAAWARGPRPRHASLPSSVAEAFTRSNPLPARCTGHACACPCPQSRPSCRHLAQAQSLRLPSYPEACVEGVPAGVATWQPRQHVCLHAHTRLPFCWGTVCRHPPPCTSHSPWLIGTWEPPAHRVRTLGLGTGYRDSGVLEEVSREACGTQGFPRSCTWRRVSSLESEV

## CC(C)(C)OC(=O)N[C@H](CCC(=O)N[C@@H]1CC[C@@]2(C)[C@H](CC[C@H]3[C@@H]4CCC[C@@]4(C)CC[C@@H]32)C1)C(=O)O [Compound 11, (R)-2-((tert-butoxycarbonyl)amino)-5-(((3R,5R,8S,9S,10S,13S,14S)-10,13-dimethylhexadecahydro-1H-cyclopenta[a]phenanthren-3-yl)amino)-5-oxopentanoic acid]
[1]
  ΔGexp: -7.49 kcal/mol
[1]; [11]
  IC50: 3.4 µM
[1]; [12]
  IC50: 3.4 ± 0.1 µM
[2]; 24 h, HepG2, index higher than 3 indicates potential mitochondrial toxicity
  Glu/Gal index (fold change): 1
[2]; [13]
  IC50: 193 ± 17 µM
[2]; [14]
  IC50: 193 ± 13 µM
[3]; 72 h, HepG2, 5.5 mM glucose
  IC50: 91 ± 5 µM
[4]; [15]
  EC50: 103 ± 8 µM
[5]
  remaining at 8 h, 42.1 μg/mL: 100%
[6]
  remaining at 8 h, 42.1 μg/mL: 100%
other
  melting point: 125 to 128 °C

## C[C@@]12CCC[C@H]1[C@@H]1CC[C@@H]3C[C@H](NC(=O)C[C@H](N)C(=O)O)CC[C@]3(C)[C@H]1CC2 [Compound 10, (S)-2-amino-4-(((3R,5R,8S,9S,10S,13S,14S)-10,13-dimethylhexadecahydro-1H-cyclopenta[a]phenanthren-3-yl)amino)-4-oxobutanoic acid]
[1]
  ΔGexp: -7.27 kcal/mol
[1]; [11]
  IC50: 4.9 µM
[1]; [12]
  IC50: 4.9 ± 1.7 µM
[2]; [13]
  IC50: > 200 µM
[2]; [14]
  IC50: > 200 µM
[3]; 72 h, HepG2, 5.5 mM glucose
  IC50: > 200 µM
[4]; [15]
  EC50: > 200 µM
[5]
  remaining at 8 h, 42.1 μg/mL: 100%
[6]
  remaining at 8 h, 42.1 μg/mL: 100%
other
  melting point: 188 to 190 °C

## CC(=O)[C@H]1CC[C@H]2[C@@H]3CC[C@@H]4C[C@H](OS(=O)(=O)O)CC[C@]4(C)[C@H]3CC[C@]12C [PAS, 20-oxo-5β-pregnan-3α-yl sulfate, reference compound]
[1]
  IC50: 24.6 ± 5.3 µM
[2]; [13]
  IC50: > 200 µM
[2]; [14]
  IC50: > 200 µM
[3]; HepG2, 72 h
  IC50: > 200 µM
[4]; Homo sapiens, HepG2, 72 h, read-out: ROS induction EC50
  EC50: > 200 µM
[7]
  IC50: 44.4 µM
[8]
  IC50: 50 µM
[9]
  IC50: 25.6 µM
[10]
  IC50: 30.1 µM

## CC(C)(C)OC(=O)N[C@@H](CC(=O)N[C@@H]1CC[C@@]2(C)[C@H](CC[C@H]3[C@@H]4CCC[C@@]4(C)CC[C@@H]32)C1)C(=O)O [Compound 9, (S)-2-((tert-butoxycarbonyl)amino)-4-(((3R,5R,8S,9S,10S,13S,14S)-10,13-dimethylhexadecahydro-1H-cyclopenta[a]phenanthren-3-yl)amino)-4-oxobutanoic acid]
[1]
  ΔGexp: -7.33 kcal/mol
[1]; [11]
  IC50: 4.5 µM
[1]; [12]
  IC50: 4.5 ± 0.6 µM
[2]; [13]
  IC50: > 200 µM
[2]; [14]
  IC50: > 200 µM
[3]; 72 h, HepG2, 5.5 mM glucose
  IC50: > 200 µM
[4]; [15]
  EC50: > 200 µM
[5]
  remaining at 8 h, 42.1 μg/mL: 99%
[6]
  remaining at 8 h, 42.1 μg/mL: 100%
other
  melting point: 154 to 157 °C

## CC(C)(C)OC(=O)N[C@@H](CC(=O)O)C(=O)N[C@@H]1CC[C@@]2(C)[C@H](CC[C@H]3[C@@H]4CCC[C@@]4(C)CC[C@@H]32)C1 [Compound 5, (S)-3-((tert-butoxycarbonyl)amino)-4-(((3R,5R,8S,9S,10S,13S,14S)-10,13-dimethylhexadecahydro-1H-cyclopenta[a]phenanthren-3-yl)amino)-4-oxobutanoic acid]
[1]
  ΔGexp: -7.22 kcal/mol
[1]; [11]
  IC50: 5.4 µM
[1]; [12]
  IC50: 5.4 ± 2.3 µM
[2]; [13]
  IC50: > 200 µM
[2]; [14]
  IC50: > 200 µM
[3]; 72 h, HepG2, 5.5 mM glucose
  IC50: > 200 µM
[4]; [15]
  EC50: > 200 µM
[5]
  remaining at 8 h, 42.1 μg/mL: 93%
[6]
  remaining at 8 h, 42.1 μg/mL: 100%

## C[C@@]12CCC[C@H]1[C@@H]1CC[C@@H]3C[C@H](NC(=O)CCCC(=O)O)CC[C@]3(C)[C@H]1CC2 [Compound 4, 5-(((3R,5R,8S,9S,10S,13S,14S)-10,13-dimethylhexadecahydro-1H-cyclopenta[a]phenanthren-3-yl)amino)-5-oxopentanoic acid]
[1]
  ΔGexp: -6.92 kcal/mol
[1]; [11]
  IC50: 8.9 µM
[1]; [12]
  IC50: 8.9 ± 1 µM
[2]; [13]
  IC50: 11 ± 3 µM
[2]; [14]
  IC50: 48 ± 6 µM
[3]; 72 h, HepG2, 5.5 mM glucose
  IC50: 4 ± 0.2 µM
[4]; [15]
  EC50: 7 ± 2 µM
[5]
  remaining at 8 h, 42.1 μg/mL: 99%
[6]
  remaining at 8 h, 42.1 μg/mL: 96%
